System: PC12 cells
Assay: Neurite growth of NGF-stimulated PC12 cells with added ManNProp
Type: cell-based
Conditions: two days, control NGF only
Method: It is known that stimulation with nerve growth factor (NGF) causes neuronal differentiation in PC12 cells. At an NGF concentration of 250 ng/ml and after three days of incubation, the PC12 cells already form a network of neurites. In order to examine whether the addition of ManNProp has an influence on the neurite formation by PC12 cells, the suitable neurite lengths for different incubation times were first titrated with different NGF concentrations. At an NGF concentration of 100 ng and an incubation time of two days, the cells formed neurites whose length were double the diameter of their cell. Under such conditions, the further course of the experiments was set up. The cells were plated with a constant number of cells on culture chambers which consisted of four chambers and were coated with collagen I (col.), poly-D-lysine (PDL) or laminin, and incubated under three different sets of conditions. Each variation was represented in duplicate. In the first chamber, the PC12 cells were incubated with 5 mM ManNProp, and in the second chamber, they were incubated with 100 ng of NGF. […] The first and second chambers served as a reference control for the cells under the influence of NGF and ManNProp. For each experiment, three culture chambers were sown in duplicate. After two days of incubation, the cells were fixed with paraformaldehyde, stained with crystal violet and washed with water. For evaluation, various segments were photographed and measured according to a random choice principle. For the evaluation, only the cells stimulated with NGF which served as a control and the cells stimulated with NGF plus ManNProp were considered. Each bar represents three experiments performed on three different days. The relative neurite length was established by CAPA (computer-assisted process analysis), and the data were integrated by means of Delta Graph. All experiments shown here were independently performed on different days. The values from Table 1 were additionally represented graphically in FIG. 3.

## CCC(=O)N[C@@H]1C(O)O[C@H](CO)[C@@H](O)[C@@H]1O (stereo partly drawn) [ManNProp, N-propanoylmannosamine]
Col. (collagen I) coating, 0.5 mM ManNProp + 100 ng NGF
  Enhancement of neurite growth in percent relative to the control: 3%
Col. (collagen I) coating, 5 mM ManNProp + 100 ng NGF
  Enhancement of neurite growth in percent relative to the control: 11%
Col. (collagen I) coating, 25 mM ManNProp + 100 ng NGF
  Enhancement of neurite growth in percent relative to the control: 20%
Laminin coating, 0.5 mM ManNProp + 100 ng NGF
  Enhancement of neurite growth in percent relative to the control: 28%
Laminin coating, 5 mM ManNProp + 100 ng NGF
  Enhancement of neurite growth in percent relative to the control: 70%
Laminin coating, 25 mM ManNProp + 100 ng NGF
  Enhancement of neurite growth in percent relative to the control: 59%
PDL (poly-D-lysine) coating, 0.5 mM ManNProp + 100 ng NGF
  Enhancement of neurite growth in percent relative to the control: 4%
PDL (poly-D-lysine) coating, 5 mM ManNProp + 100 ng NGF
  Enhancement of neurite growth in percent relative to the control: 5%
PDL (poly-D-lysine) coating, 25 mM ManNProp + 100 ng NGF
  Enhancement of neurite growth in percent relative to the control: 17%

Reference: patent US7217698B2, “Use of mannosamine derivatives for the stimulation of neurite growth” (Dompatent von Kreisler Selting Werner, priority 2001, dated 2007)
